Data on 17 compounds can be found in PubChem BioAssay AID248 (DTP/NCI, 2004).

Inconclusive results and toxic doses are left out.

This experiment deals with L1210 leukemia ip in BDF1 mice, survival T/C. Put plainly: NCI In Vivo Anticancer Drug Screen. Data for tumor model L1210 Leukemia (intraperitoneal) in B6D2F1 (BDF1) mice. The note with it: endpoint: mean survival time, higher = longer survival. An outline of the steps:
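Each compound was tested against a transplantable tumor grown in mice. The endpoint was survival, with treated animals benchmarked against vehicle controls as a simple ratio.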

[1] abbreviates: dose: 50.0 mg/kg/injection, schedule: Q01DX001 (ip), vehicle: saline.
[2] abbreviates: dose: 100.0 mg/kg/injection, schedule: Q01DX001 (ip), vehicle: saline.
Setting [3] is: dose: 200.0 mg/kg/injection, schedule: Q01DX001 (ip), vehicle: saline.
Setting [4] is: dose: 400.0 mg/kg/injection, schedule: Q01DX001 (ip), vehicle: saline.
[5] abbreviates: dose: 100.0 mg/kg/injection, schedule: Q01DX009 (ip), vehicle: Klucel (hydroxypropylcellulose) (HPC).
Where [6] appears, read: dose: 200.0 mg/kg/injection, schedule: Q01DX009 (ip), vehicle: Klucel (hydroxypropylcellulose) (HPC).
The mark [7] stands for this setting: dose: 400.0 mg/kg/injection, schedule: Q01DX009 (ip), vehicle: Klucel (hydroxypropylcellulose) (HPC).
The mark [8] stands for this setting: dose: 100.0 mg/kg/injection, schedule: Q01DX001 (ip), vehicle: carboxymethylcellulose (CMC).
Where [9] appears, read: dose: 200.0 mg/kg/injection, schedule: Q01DX001 (ip), vehicle: carboxymethylcellulose (CMC).
The mark [10] stands for this setting: dose: 400.0 mg/kg/injection, schedule: Q01DX001 (ip), vehicle: carboxymethylcellulose (CMC).
The mark [11] stands for this setting: dose: 100.0 mg/kg/injection, schedule: Q01DX001 (ip), vehicle: saline with Tween-80.
Setting [12] is: dose: 200.0 mg/kg/injection, schedule: Q01DX001 (ip), vehicle: saline with Tween-80.
The mark [13] stands for this setting: dose: 400.0 mg/kg/injection, schedule: Q01DX001 (ip), vehicle: saline with Tween-80.

As for `c1ccc2c(c1)[nH]c1cc3ccncc3cc12`, the T/C by setting is: under setting [1], 100 % of control; (dose: 100.0 mg/kg/injection, schedule: Q01DX001 (ip), vehicle: Klucel (hydroxypropylcellulose) (HPC)) 94 % of control; under setting [2], 94 % of control; (dose: 100.0 mg/kg/injection, schedule: Q04DX003 (ip), vehicle: Klucel (hydroxypropylcellulose) (HPC)) 93 % of control; (dose: 200.0 mg/kg/injection, schedule: Q01DX001 (ip), vehicle: Klucel (hydroxypropylcellulose) (HPC)) 96 % of control; under setting [3], 98 % of control. The T/C was 93 % of control (dose: 200.0 mg/kg/injection, schedule: Q04DX003 (ip), vehicle: Klucel (hydroxypropylcellulose) (HPC)); 92 % of control (dose: 400.0 mg/kg/injection, schedule: Q01DX001 (ip), vehicle: Klucel (hydroxypropylcellulose) (HPC)); 96 % of control under setting [4]; 91 % of control (dose: 400.0 mg/kg/injection, schedule: Q04DX003 (ip), vehicle: Klucel (hydroxypropylcellulose) (HPC)).
Take `CCCCSC(C)(C)CC`: the T/C is, setting by setting: under setting [1], 98 % of control; under setting [2], 93 % of control; under setting [3], 107 % of control; under setting [4], 104 % of control.
Consider `CCOC(=N)Cc1ccccc1`, for which the T/C (dose: 12.5 mg/kg/injection, schedule: Q04DX002 (ip), vehicle: Klucel (hydroxypropylcellulose) (HPC)) was 100 % of control; the T/C (dose: 25.0 mg/kg/injection, schedule: Q04DX002 (ip), vehicle: Klucel (hydroxypropylcellulose) (HPC)) is 103 % of control; the T/C (dose: 50.0 mg/kg/injection, schedule: Q04DX002 (ip), vehicle: Klucel (hydroxypropylcellulose) (HPC)) was 106 % of control; the T/C (dose: 100.0 mg/kg/injection, schedule: Q04DX002 (ip), vehicle: Klucel (hydroxypropylcellulose) (HPC)) is 110 % of control.
As for `O=NN(CCCl)C(=O)Nc1ccc(-c2ccc(NC(=O)N(CCCl)N=O)cc2)cc1`, the T/C is 116 % of control (dose: 8.0 mg/kg/injection, schedule: Q01DX001 (ip), vehicle: carboxymethylcellulose (CMC)); 118 % of control (dose: 16.0 mg/kg/injection, schedule: Q01DX001 (ip), vehicle: carboxymethylcellulose (CMC)); 161 % of control (dose: 250.0 mg/kg/injection, schedule: Q01DX001 (ip), vehicle: carboxymethylcellulose (CMC)); 163 % of control (dose: 375.0 mg/kg/injection, schedule: Q01DX001 (ip), vehicle: carboxymethylcellulose (CMC)); 190 % of control (dose: 500.0 mg/kg/injection, schedule: Q01DX001 (ip), vehicle: carboxymethylcellulose (CMC)); 229 % of control (dose: 750.0 mg/kg/injection, schedule: Q01DX001 (ip), vehicle: carboxymethylcellulose (CMC)). Also, the T/C runs as follows: (dose: 1000.0 mg/kg/injection, schedule: Q01DX001 (ip), vehicle: carboxymethylcellulose (CMC)) 229 % of control; (dose: 1500.0 mg/kg/injection, schedule: Q01DX001 (ip), vehicle: carboxymethylcellulose (CMC)) 232 % of control; (dose: 2000.0 mg/kg/injection, schedule: Q01DX001 (ip), vehicle: carboxymethylcellulose (CMC)) 168 % of control; (dose: 2500.0 mg/kg/injection, schedule: Q01DX001 (ip), vehicle: carboxymethylcellulose (CMC)) 223 % of control.
Consider `C[CH2][Ge]([CH2]C)[O][Ge]([CH2]C)[CH2]C`, for which the T/C is, setting by setting: (dose: 5.0 mg/kg/injection, schedule: Q04DX002 (ip), vehicle: saline with Tween-80) 95 % of control; (dose: 10.0 mg/kg/injection, schedule: Q04DX002 (ip), vehicle: saline with Tween-80) 100 % of control; (dose: 20.0 mg/kg/injection, schedule: Q04DX002 (ip), vehicle: saline with Tween-80) 95 % of control.
Consider `Cc1cc(=O)n(C)c2c(C)cccc12`, for which the T/C (dose: 100.0 mg/kg/injection, schedule: Q04DX003 (ip), vehicle: saline with Tween-80) is 101 % of control; the T/C (dose: 200.0 mg/kg/injection, schedule: Q04DX003 (ip), vehicle: saline with Tween-80) was 98 % of control; the T/C (dose: 400.0 mg/kg/injection, schedule: Q04DX003 (ip), vehicle: saline with Tween-80) is 98 % of control.
For the compound `O=C(Nc1ccc(C2=NCCCN2)cc1)N1CCN(C(=O)Nc2ccc(C3=NCCCN3)cc2)CC1`, the T/C is, setting by setting: (dose: 10.0 mg/kg/injection, schedule: Q01DX Z (ip), vehicle: water) 106 % of control; (dose: 20.0 mg/kg/injection, schedule: Q01DX Z (ip), vehicle: water) 120 % of control.
In the case of `O=C(Nc1ccc(Cl)c(Cl)c1)Oc1cccc(NC(=S)Nc2ccccc2)c1`, the T/C under setting [5] was 94 % of control, the T/C under setting [6] was 94 % of control and the T/C under setting [7] was 94 % of control.
On to `CC(C)(CCC(=O)O)CCC(=O)O`, for which the T/C (dose: 50.0 mg/kg/injection, schedule: Q01DX001 (ip), vehicle: carboxymethylcellulose (CMC)) was 100 % of control; the T/C under setting [8] was 111 % of control; the T/C under setting [9] is 100 % of control; the T/C under setting [10] is 94 % of control.
For `Cc1ccc(C2=C(c3ccc(C)cc3)CS(=O)(=O)C2)cc1`, the T/C is, setting by setting: under setting [11], 95 % of control; under setting [12], 168 % of control; under setting [13], 244 % of control.
With `CCCCCC[Si](C)(C)C`, the T/C under setting [8] was 89 % of control, the T/C under setting [9] is 91 % of control and the T/C under setting [10] was 89 % of control.
Turning to `O=C(Nc1ccccc1)Sc1ccccc1`, the T/C (dose: 62.5 mg/kg/injection, schedule: Q01DX001 (ip), vehicle: Klucel (hydroxypropylcellulose) (HPC)) is 97 % of control.
With `COc1ccc(/C=N/NC(=O)/C=C/c2ccccc2)c(OC)c1`, the T/C runs as follows: under setting [5], 97 % of control; under setting [6], 98 % of control; under setting [7], 92 % of control.
In the case of `CCOC(=O)CNCCN(CC)CC`, the T/C is, setting by setting: under setting [11], 101 % of control; under setting [12], 111 % of control; under setting [13], 94 % of control.
With `CC(=O)OCc1c(O)c2c(c(O)c1COC(C)=O)C(=O)C=CC2=O`, the T/C is, setting by setting: (dose: 2.0 mg/kg/injection, schedule: Q01DX009 (ip), vehicle: saline) 96 % of control; (dose: 4.0 mg/kg/injection, schedule: Q01DX009 (ip), vehicle: saline) 96 % of control; (dose: 8.0 mg/kg/injection, schedule: Q01DX009 (ip), vehicle: saline) 88 % of control; (dose: 16.0 mg/kg/injection, schedule: Q01DX009 (ip), vehicle: saline) 91 % of control.
`CCOC(=O)C1N=C(c2ccccc2)OC1c1ccccc1` (stereo unspecified): the T/C reads like this: (dose: 50.0 mg/kg/injection, schedule: Q01DX009 (ip), vehicle: saline with Tween-80) 94 % of control; (dose: 100.0 mg/kg/injection, schedule: Q01DX009 (ip), vehicle: saline with Tween-80) 94 % of control; (dose: 200.0 mg/kg/injection, schedule: Q01DX009 (ip), vehicle: saline with Tween-80) 102 % of control.
On to `COC(=O)C(CC(C)C)NC(=O)CN(C)C(=O)OCc1ccccc1` (stereo unspecified), for which the T/C reads like this: (dose: 75.0 mg/kg/injection, schedule: Q04DX003 (sc), vehicle: olive oil, sesame oil, peanut oil) 105 % of control; (dose: 150.0 mg/kg/injection, schedule: Q04DX003 (sc), vehicle: olive oil, sesame oil, peanut oil) 103 % of control; (dose: 300.0 mg/kg/injection, schedule: Q04DX003 (sc), vehicle: olive oil, sesame oil, peanut oil) 108 % of control.
